Values quoted from earlier work as cited in paper PMC9503778, “Targeted Isolation of Antibiotic Brominated Alkaloids from the Marine Sponge Pseudoceratina durissima Using Virtual Screening and Molecular Networking” (Marine Drugs, 2022).

What was measured:
Parameters in all cases: method as in PMID 29702602
fish = details: 100 µg/mL; cited from earlier work
[1] = test system: fresh water fish (Poecilia reticulata); details: dosed feeding experiments; cited from earlier work
[2] = test system: reef fish (Acanthus triostegus); details: dosed feeding experiments; cited from earlier work

In the case of CN(C)CCCOc1c(Br)cc(/C=C/C(=O)N(C)CCCOc2c(Br)cc(CCN(C)C)cc2Br)cc1Br [psammaplysene D], the “fish behavior during acute exposure” value (fish) is given as “the fish became totally confused and experienced uncontrolled mobility”, the “feeding behavior of fresh water fish (Poecilia reticulata)” value [1] is given as “significant curtailing in feeding behavior” and the “feeding behavior of reef fish (Acanthus triostegus)” value [2] is given as “significant curtailing in feeding behavior”.
